Data on 1 molecule can be found in publication PMC10120462, “Styrylquinazoline derivatives as ABL inhibitors selective for different DFG orientations” (Journal of Enzyme Inhibition and Medicinal Chemistry, 2023).

The target in this assay is T1, ABL (Homo sapiens, UniProt P00519).
T1 construct: purchased Promega
Description: Pharmacological synergy on the ABL enzyme model (ABL1 Kinase Assay). The settings on record: Chou-Talalay method. The format is biochemical. As to the method:
We selected the aforementioned reference inhibitors based on their different modes of interaction with the kinases. […] Thus, the results of this experiment may allow identification of the site where the IS1 inhibitor binds to ABL kinase.
Synergy experiments were performed analogously to our previous reports[36]^,[65]. Synergy was calculated by the Chou-Talay method (CompuSyn software)[66]^,[67]. Experiments were performed at least three times.

Entries after “also recorded” stand apart in the source; their conditions may differ.

T1 sequence (P00519 whole entry): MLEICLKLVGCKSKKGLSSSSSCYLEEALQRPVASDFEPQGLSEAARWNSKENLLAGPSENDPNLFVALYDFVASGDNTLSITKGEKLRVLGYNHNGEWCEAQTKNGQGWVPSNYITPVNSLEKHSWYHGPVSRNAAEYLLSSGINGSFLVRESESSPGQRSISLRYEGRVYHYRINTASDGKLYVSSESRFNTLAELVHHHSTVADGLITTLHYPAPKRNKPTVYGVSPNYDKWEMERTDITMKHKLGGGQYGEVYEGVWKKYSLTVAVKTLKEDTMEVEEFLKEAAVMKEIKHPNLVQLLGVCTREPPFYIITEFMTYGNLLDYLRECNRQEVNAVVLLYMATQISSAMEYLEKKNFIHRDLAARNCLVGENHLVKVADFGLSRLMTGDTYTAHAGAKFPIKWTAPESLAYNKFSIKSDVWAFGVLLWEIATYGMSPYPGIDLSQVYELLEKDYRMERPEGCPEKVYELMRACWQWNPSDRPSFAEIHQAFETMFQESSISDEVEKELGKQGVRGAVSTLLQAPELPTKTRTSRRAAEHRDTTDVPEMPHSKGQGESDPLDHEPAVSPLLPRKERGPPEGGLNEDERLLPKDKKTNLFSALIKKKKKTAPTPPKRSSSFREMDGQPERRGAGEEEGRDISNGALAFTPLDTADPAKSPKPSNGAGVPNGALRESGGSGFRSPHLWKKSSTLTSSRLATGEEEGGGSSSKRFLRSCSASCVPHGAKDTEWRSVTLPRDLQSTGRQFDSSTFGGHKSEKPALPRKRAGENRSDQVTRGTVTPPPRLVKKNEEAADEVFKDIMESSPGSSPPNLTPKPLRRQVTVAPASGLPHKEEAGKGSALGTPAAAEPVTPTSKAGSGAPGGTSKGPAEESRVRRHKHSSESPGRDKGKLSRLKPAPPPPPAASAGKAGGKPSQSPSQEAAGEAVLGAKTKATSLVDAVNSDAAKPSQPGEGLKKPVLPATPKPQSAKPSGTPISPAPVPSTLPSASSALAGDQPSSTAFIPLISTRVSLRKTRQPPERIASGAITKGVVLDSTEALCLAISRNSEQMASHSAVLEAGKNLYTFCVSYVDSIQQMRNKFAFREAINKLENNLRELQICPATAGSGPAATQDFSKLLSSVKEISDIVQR

For the molecule `COc1ccccc1/C=C/c1nc(Sc2ccccc2Cl)c2ccccc2n1` [IS1, 2-[(E)-2–(2-methoxyphenyl)ethenyl]-4–(2-chlorophenylthio)quinazoline], the “Effect on ABL inhibition of IS1 in combination with GNF-2” value was “significantly attenuated inhibition; also recorded: antagonistic outcome”, the “Effect on ABL inhibition of IS1 in combination with dasatinib” value is “virtually no effect” and the “Effect on ABL inhibition of IS1 in combination with imatinib” value is recorded as “synergistic effect”.
